Key:
[1] = system: STAT3, AKT, ERK, Shp2; experiment: Western blotting, downstream signaling phosphorylation in BaF3 cells transduced with FLT-3ITD; assay type: cell-based; settings: BaF3 FLT-3ITD
Excerpt: (§1) All antibodies were from Cell Signaling Technology, Inc. (Danvers, Mass.)
(§2) Since ROS, ALK, LTK, InsR, and IGFIR belong to the same family of tyrosine kinases, they may share similar structure in the kinase domain.

[2] = system: BaF3 cells expressing FIG-ROS(L); experiment: Cleaved caspase-3 flow cytometry apoptosis assay, BaF3 FIG-ROS(L); assay type: cell-based; settings: FIG. 7; presence of TAE-684
Excerpt: (§3) The mechanism of death of the BaF3 and Karpas 299 cells was next assessed by measuring the percentage of cleaved-caspase 3 positive cells by flow cytometry assay using cleaved caspase-3 as a marker for apoptosis.

[3] = system: BaF3 expressing FIG-ROS(L); experiment: MTS cell growth assay, BaF3 cells expressing FIG-ROS(L); assay type: cell-based; settings: FIG. 6; 0-1000 nM TAE-684, 72 hours
Protocol: (§4) BaF3 and Karpas 299 cells were obtained from DSMZ (Deutsche Sammlung von Mikroorganismen und Zellkulturen GmbH, Germany). BaF3 cells, which need interleukin-3 to survive, were maintained at 37° C. in RPMI-1640 medium (Invitrogen) with 10% fetal bovine serum (FBS) (Sigma) and 1.0 ng/ml murine IL-3 (R&D Systems). Karpas 299 cells (a lymphoma cell line) were grown in RPMI-1640 with 10% FBS.
(§5) BaF3 cells were transduced with retrovirus encoding FIG-ROS(S), FIG-ROS(L), or FLT-3ITD (the Internal tandem duplication mutation in FLT3 causes AML leukemia), and selected for IL3 independent growth. Karpas 299 cells, which express NPM-ALK, was used as a positive control. Retroviruses were generated as previously described (see PCT Publication No. WO 2010/093928, incorporated by reference).
(§6) A MTS assay was performed using the CellTiter 96 Aqueous One Solution Reagent (Promega, Catalog No G3582). […] After 72 hours, 20 μl of the CellTiter 96 Aqueous One Solution Reagent was added into each well of a 96 well assay plate (flat bottom), and then 100 μl of cells grown with or without treatment. Media-only wells were used as controls. The 96 well plate was incubated for 1-4 hours at 37° C., and then viable cells were counted by reading the absorbance at 490 nm using a 96 well plate reader.

[4] = target: FIG-ROS(L) (Homo sapiens, UniProt P08922); experiment: Western blotting, phosphorylation of FIG-ROS(L) in BaF3 cells; assay type: cell-based
Excerpt: as §1, §2

[5] = system: BaF3 expressing FLT3ITD; settings: FIG. 6; 0-1000 nM TAE-684, 72 hours
Protocol: as §4, §5, §6

[6] = system: Karpas 299 cells; settings: FIG. 6; 0-1000 nM TAE-684, 72 hours
Protocol: as §4, §5, §6

[7] = system: BaF3 expressing FIG-ROS(S); experiment: MTS cell growth assay, BaF3 cells expressing FIG-ROS(S); assay type: cell-based; settings: FIG. 6; 0-1000 nM TAE-684, 72 hours
Protocol: as §4, §5, §6

[8] = system: STAT3, AKT, ERK, Shp2; experiment: Western blotting, downstream signaling phosphorylation in FIG-ROS(S) and FIG-ROS(L) expressing BaF3 cells; assay type: cell-based
Excerpt: as §1, §2

[9] = system: ERK, STAT3; experiment: Western blotting, ERK/STAT3 phosphorylation in Karpas 299 cells; assay type: cell-based
Excerpt: as §1, §2

[10] = target: T1, FIG-ROS(S) (Homo sapiens, UniProt P08922); experiment: Western blotting, phosphorylation of FIG-ROS(S) in BaF3 cells; assay type: cell-based
T1 construct: expressed in transfected cells; host or cells: BaF3 cells, retroviral transduction
Excerpt: as §1, §2

[11] = system: BaF3 cells expressing FIG-ROS(S); experiment: Cleaved caspase-3 flow cytometry apoptosis assay, BaF3 FIG-ROS(S); assay type: cell-based; settings: FIG. 7; presence of TAE-684
Excerpt: as §3

[12] = system: Karpas 299 cells; experiment: Cleaved caspase-3 flow cytometry apoptosis assay, Karpas 299; assay type: cell-based; settings: FIG. 7; presence of TAE-684
Excerpt: as §3

[13] = FIG. 8, 0, 10, 50, or 100 nM TAE-684 for three hours
[14] = FIG. 10, 0, 0.1, 0.3, or 1.0 uM crizotinib for three hours

## COc1cc(N2CCC(N3CCN(C)CC3)CC2)ccc1Nc1ncc(Cl)c(Nc2ccccc2S(=O)(=O)C(C)C)n1 [TAE-684]
[1]; [13]
  phosphorylation of STAT3, AKT, and ERK, and Shp2: not affected
[2]
  mechanism of death (cleaved-caspase 3 positive cells): die by apoptosis
[3]
  cellular growth response: stopped growing
[4]; [13]
  phosphorylation of FIG-ROS(L): inhibited
[5]
  cellular growth response: not susceptible
[6]
  cellular growth response: stopped growing
[7]
  cellular growth response: stopped growing
[8]; [13]
  phosphorylation of STAT3, AKT, and ERK, and Shp2: inhibited
[9]; [13]
  ERK phosphorylation: inhibited
[10]; [13]
  phosphorylation of FIG-ROS(S): inhibited
[11]
  mechanism of death (cleaved-caspase 3 positive cells): die by apoptosis
[12]
  mechanism of death (cleaved-caspase 3 positive cells): did not die by apoptosis

## C[C@@H](Oc1cc(-c2cnn(C3CCNCC3)c2)cnc1N)c1c(Cl)ccc(F)c1Cl [crizotinib]
[1]; [14]
  phosphorylation of STAT3 and ERK: not affected
[4]; [14]
  phosphorylation of FIG-ROS(L): inhibited
[8]; [14]
  phosphorylation of STAT3 and ERK: inhibited
[9]; [14]
  STAT3 and ERK phosphorylation: inhibited
[10]; [14]
  phosphorylation of FIG-ROS(S): inhibited

Source: US20170275706A1, “ALK AND ROS KINASE IN CANCER” (priority 2010, published 2017)
